4 molecules from patent US20250051375A1, “ANTI-HIV COMPOUNDS” (Gilead Sciences, Inc., priority 2023, published 2025) can be followed below.

Values after ≈ are worked out from the molar mass of the structure shown. Where only a bound is given, the exact number is not on record here.

Data set [1] in a line: Intestinal S9 Assay (dog GI S9). The class given is in vitro ADME. Particulars: dog, 1.0 mg/mL S9 protein, TRIS pH 7.4, read-out: Dog GI S9 T½. The essentials: (§1)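 Pooled dog or human intestinal S9 at 1.0 mg/mL protein in TRIS buffer pH 7.4 with ZnCl2 and MgCl2; compound at 2 μM, sampled 0–120 min and quenched. Remaining parent by LC-MS peak area ratio; half-life from first-order exponential decline fit.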

Another data set is described as follows: Solubility in FaSSIF. Particulars: 23 °C, pH 6.5, fassif, thermodynamic from solid. The essentials: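 Concentration measured by HPLC-UV after solid compound was dosed at 5 mg/mL into pH 6.5 fasted-state simulated intestinal fluid containing taurocholate and lecithin (4:1 molar) and vortexed.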
Data set [2] can be described thus: Intestinal S9 Assay (human GI S9). The data set is classed as in vitro ADME. Particulars: human, 1.0 mg/mL S9 protein, TRIS pH 7.4, read-out: Human GI S9 T½. The gist of the method:
as §1

Data set [3] has as its target bovine intestinal alkaline phosphatase (Bos taurus (Bovine), UniProt P19111). Description: BiALP: conversion by bovine intestinal alkaline phosphatase. The settings on record: 2 μM substrate, 100 ng/mL iALP, Tris pH 7.8, 37° C., 60 minutes. The class given is in vitro ADME. The essentials:
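LC-MS (positive mode) quantified analyte/internal-standard peak area ratios, referenced to 2 μM parent product. This followed a 60 min, 37° C reaction of 2 μM substrate in Tris buffer pH 7.8 (1 mM MgCl2, 1 mM ZnCl2) containing 100 ng/mL iALP or buffer alone, run in triplicate.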

The subject of another data set is HIV-1 IIIB strain. Description: MT-4 HIV Wild Type Virus Infection Assay (IIIB Virus). The class given is cell-based. Particulars: Human immunodeficiency virus 1, IIIB, MT4, 120 h, MT-4 cells acutely infected with HIV-1 IIIB, 5 day incubation, Cell-titer glo. The gist of the method: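 MT-4 cells at 2×10^6 cells/ml in RPMI/10% FBS were acutely infected with HIV-1 IIIB for 1 h at 37° C, diluted 25× and added to serially diluted compounds. After 5 days at 37° C, viability read by CellTiter-Glo luminescence; EC50 from dose-response curves.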

Another data set can be described thus: PBS Stability Assay. The data set is classed as physicochemical. The settings on record: buffer, pH 7.4, 2 μM, phosphate buffered saline pH 7.4; read-out: PBS T½. The essentials:
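Half-life derives from first-order exponential decline of % compound remaining, quantified by LC-MS analyte/internal-standard peak-area ratio. Compound (2 μM final) sat in pH 7.4 phosphate-buffered saline, with aliquots quenched into acidified acetonitrile containing labetalol from 0 to 120 min.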

Chain of bovine intestinal alkaline phosphatase (P19111 20-506): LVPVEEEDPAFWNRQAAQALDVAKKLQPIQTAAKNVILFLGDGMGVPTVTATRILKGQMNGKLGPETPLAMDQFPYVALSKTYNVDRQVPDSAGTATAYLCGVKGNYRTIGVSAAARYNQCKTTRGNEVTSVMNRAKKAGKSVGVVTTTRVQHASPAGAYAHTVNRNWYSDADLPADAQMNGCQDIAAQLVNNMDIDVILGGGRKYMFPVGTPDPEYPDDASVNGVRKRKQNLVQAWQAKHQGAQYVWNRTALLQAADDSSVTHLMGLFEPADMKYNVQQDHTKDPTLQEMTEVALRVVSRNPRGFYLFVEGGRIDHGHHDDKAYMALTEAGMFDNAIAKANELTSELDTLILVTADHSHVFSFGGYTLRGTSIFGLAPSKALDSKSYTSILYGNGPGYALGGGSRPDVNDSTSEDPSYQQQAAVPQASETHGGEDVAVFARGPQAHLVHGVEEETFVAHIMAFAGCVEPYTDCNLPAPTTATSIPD

For orientation: solubility means the concentration that dissolves in the medium under given conditions. High values mean much dissolved substance, low ones little dissolved substance. The EC50 is the concentration at which the effect is half-maximal. A low value points to a more potent agent. Take `COC(=O)N[C@H](C(=O)N[C@@H](Cc1ccc(C#Cc2cnc(N3CC4CCC(C3)N4C3COC3)nc2)cc1)[C@H](CN(Cc1c(F)cc(-c2ccn(C(F)F)n2)cc1F)NC(=O)[C@@H](NC(=O)OC)C(C)(C)C(F)(F)F)OC(=O)CC(C)(C)c1c(CC(=O)NCc2ccc(C(=O)O)cc2)cc(C)cc1OP(=O)(O)O)C(C)(C)C(F)(F)F` [Example 49]: the half-life at 2 μM stood at 2.59 h in data set [1], 5.5 h in data set [2] and 5.66 h in “PBS Stability Assay”. Besides, in “Solubility in FaSSIF”, the solubility at 2 h was found to be 1220 µg/mL (≈ 754 µM). In data set [3], the “[Compound]” value is reported as 2175 nM. In the data set with HIV-1 IIIB strain, this molecule displayed an EC50 of 224 nM.

For `COC(=O)N[C@H](C(=O)N[C@@H](Cc1ccc(C#Cc2cnc(N3CC4CCC(C3)N4C3COC3)nc2)cc1)[C@H](CN(Cc1c(F)cc(-c2ccn(C(F)F)n2)cc1F)NC(=O)[C@@H](NC(=O)OC)C(C)(C)C(F)(F)F)OC(=O)CC(C)(C)c1c(CC(=O)NCc2ccc(C#N)cc2)cc(C)cc1OP(=O)(O)O)C(C)(C)C(F)(F)F` [Example 51, (5S,10S,11S,14S)-8-(4-(1-(difluoromethyl)-1H-pyrazol-3-yl)-2,6-difluorobenzyl)-11-(4-((2-(8-(oxetan-3-yl)-3,8-diazabicyclo[3.2.1]octan-3-yl)pyrimidin-5-yl)ethynyl)benzyl)-3,6,13,16-tetraoxo-5,14-bis(1,1,1-trifluoro-2-methylpropan-2-yl)-2,17-dioxa-4,7,8,12,15-pentaazaoctadecan-10-yl 3-(2-(2-((4-cyanobenzyl)amino)-2-oxoethyl)-4-methyl-6-(phosphonooxy)phenyl)-3-methylbutanoate], the results for the half-life at 2 μM (in data set [1]; in data set [2]; in “PBS Stability Assay”) were 8.29 h, 7.98 h and 6.71 h, respectively. In “Solubility in FaSSIF”, this molecule came in with a solubility at 2 h of under 1000 µg/mL. Moreover, the “[Compound]” value in data set [3] was 2331.5 nM. In addition, a half-maximal effect in the data set with HIV-1 IIIB strain (EC50) was put at 636 nM.

Consider `COC(=O)N[C@H](C(=O)N[C@@H](Cc1ccc(C#Cc2cnc(N3CC4CCC(C3)N4C3COC3)nc2)cc1)[C@H](CN(Cc1c(F)cc(-c2ccn(C(F)F)n2)cc1F)NC(=O)[C@@H](NC(=O)OC)C(C)(C)C(F)(F)F)OC(=O)CC(C)(C)c1c(CC(=O)Nc2ccc(/C=C/C(=O)O)cc2)cc(C)cc1OP(=O)(O)O)C(C)(C)C(F)(F)F` [Example 52], for which the half-life at 2 μM in data set [1] amounted to 2.59 h; in data set [2], 5.07 h; in “PBS Stability Assay” it was 5.92 h. In the data set “Solubility in FaSSIF”, this molecule had a solubility at 2 h of under 1000 µg/mL. Further, in data set [3], the “[Compound]” value is reported as 2131.6 nM. For the same molecule, it took 67.2 nM to reach a half-maximal effect in the data set on HIV-1 IIIB strain (EC50).

For `COC(=O)N[C@H](C(=O)N[C@@H](Cc1ccc(C#Cc2cnc(N3CC4CCC(C3)N4C3COC3)nc2)cc1)[C@H](CN(Cc1c(F)cc(-c2ccn(C(F)F)n2)cc1F)NC(=O)[C@@H](NC(=O)OC)C(C)(C)C(F)(F)F)OC(=O)CC(C)(C)c1c(CC(=O)NCc2cccc(C(=O)O)c2)cc(C)cc1OP(=O)(O)O)C(C)(C)C(F)(F)F` [Example 53], the values for the half-life at 2 μM (in data set [1]; in data set [2]; in the data set “PBS Stability Assay”) were 2.41 h, 3.4 h and 9.76 h, respectively. Moreover, the solubility at 2 h in “Solubility in FaSSIF” is under 1000 µg/mL. For the same molecule, the “[Compound]” value in data set [3] amounted to 2028.9 nM. This molecule displayed an EC50 in the data set with HIV-1 IIIB strain of 113 nM.
